Results on 14 compounds are retold here after PubChem BioAssay (NCI).

Common to all, as to assay: NCI tumour cell line growth inhibition, 48 h
The subject of assay [1] is A498 renal.
Assay [2] deals with CAKI-1 renal.
The test system of assay [3] is M14 melanoma.
Assay [4] deals with RPMI-8226 leukemia.
The test system of assay [5] is CCRF-CEM leukemia.
Assay [6] deals with ACHN renal.
Assay [7] deals with OVCAR-3 ovarian.
Assay [8] concerns SF-539 CNS.
The test system of assay [9] is SF-268 CNS.
The test system of assay [10] is COLO 205 colon.

Structures are written as SMILES. Several values for one entry are separate records, joined by “and”; a condition that tells them apart may be missing. Identical values can stand only once.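 These data come from cells grown in 96-well plates and exposed to compound for 48 hours at five concentrations. GI50 is the concentration that inhibits growth by half. TGI is the concentration that stops growth completely.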

Consider `N=S(c1ccccc1)c1ccccc1[N+](=O)[O-]` (stereo not given), for which the TGI in assay [1] is greater than 100 µM; in [2] it was 28.8 µM; in [3] it was 27.7 µM; in assay [4], 54.6 µM; in assay [5], 43.4 µM; in assay [6], 31 µM. Besides, the TGI in assay [7] stood at 23.2 µM; in assay [8] it was 37.8 µM; in [9], 42.1 µM; in [10], 34 µM.

As for `O=c1c2ccccc2nc2[nH][nH]c(=S)n12`, the TGI in [1], in [2], in assay [3], in [4], in [5] and in assay [6] was greater than 100 µM throughout. The TGI in [7], in [8], in [9] and in assay [10] was greater than 100 µM in each case.

For `O=[N+]([O-])/C(C(Cl)=C(Cl)Cl)=C(\Nc1cccc2cccnc12)SCc1ccccc1`, the TGI was 50.6 µM in assay [1]; 43.3 µM in assay [2]; 74.3 µM in assay [3]; greater than 100 µM in [4]; 97.4 µM in assay [5]; 64.4 µM in assay [6]. Besides, the TGI came to 32.8 µM in [7], 32.6 µM in assay [8], 42.3 µM in [9] and 33.5 µM in [10].

On to `O=C1CN2C(c3ccccc3)=NN(c3ccc([N+](=O)[O-])cc3)C2(c2ccccc2)c2cc(Cl)ccc2N1CC1CC1` (stereo not given), for which the TGI in assay [1], in assay [2], in assay [3], in assay [4], in assay [5] and in [6] was greater than 100 µM throughout. Further, the TGI in [7], in [8], in [9] and in assay [10] was greater than 100 µM in each case.

Take `CCN(CC)CCOc1ccc(N2C(=O)c3cc(OC)c(OC)cc3C2=O)cc1`: the TGI in [1], in assay [2], in assay [3], in assay [4], in assay [5] and in [6] was greater than 100 µM throughout. Also, the TGI in assay [7], in assay [8], in assay [9] and in assay [10] was greater than 100 µM each time.

As for `CC1CC[C@@]2(OC1)OC1C[C@H]3[C@@H]4CC[C@H]5CC(OC6OC(CO)C(OC7OC(CO)C(O)C(O)C7OC7OC(CO)C(O)C(O)C7O)C(O)C6O)CCC5(C)[C@H]4CCC3(C)C1[C@@H]2C` (stereo not given in full), the TGI was 4.08 µM in assay [1]; 10.6 µM in assay [2]; 10.4 µM in assay [3]; 6.96 µM in [4]; 4.1 µM in assay [5]; 6.06 µM in [6]. For the same compound, the TGI in assay [7] worked out at 5.94 µM; in [8], 2.92 µM; in assay [9], 8.77 µM; in assay [10] it was 1.77 µM.

With `Cc1cc(=O)c2c([nH]1)NS(=O)(=O)NC2=O`, the TGI in [1], in assay [2], in [3], in assay [4], in assay [5] and in [7] was greater than 100 µM each time. For the same compound, the TGI in [8], in [9] and in assay [10] was greater than 100 µM in each case.

In the case of `CCOC(=O)NC(=S)NN(C)C1=NCC(C)(C)S1`, the TGI in [1], in assay [2], in [4], in [5], in assay [6] and in assay [7] was greater than 100 µM each time. Besides, the TGI in assay [8] and in assay [10] was greater than 100 µM throughout.

On to `O=C(/C=C/c1ccsc1)c1ccsc1`, for which the TGI in [1] was greater than 100 µM; in assay [2], 41.4 µM; in assay [3], 66.4 µM; in [4], 47.2 µM; in [5], 45.2 µM; in assay [6], 42.6 µM. For the same compound, the TGI is 37.9 µM in [8], greater than 100 µM in [9] and 52.8 µM in [10].

As to `CC[C@H]1CN2CCc3cc(OC)c(OC)cc3[C@@H]2C[C@@H]1C[C@H]1NCCc2cc(OC)c(OC)cc21`, the TGI is 0.176 µM in assay [1]; 0.111 µM and 0.333 µM in assay [2]; 0.0512 µM and 0.0606 µM in assay [3]; 0.151 µM and 0.0175 µM in assay [4]; 0.0656 µM in assay [5]; 0.0974 µM and 0.428 µM in assay [6]. Further, the TGI in [7] is 0.187 µM and 0.18 µM; in assay [10] it was 0.0283 µM and 0.0201 µM. In [5], the GI50 is 21.5 nM.

On to `CS(=O)(=O)OCCn1c(=O)n(CCOS(C)(=O)=O)c(=O)n(CCOS(C)(=O)=O)c1=O`, for which the TGI in assay [1], in [2], in assay [4], in [5], in assay [6] and in assay [7] was greater than 100 µM each time. For the same compound, the TGI in assay [8], in [9] and in assay [10] was greater than 100 µM throughout.

Regarding `Cc1cc2[nH]c3[nH]c(=O)[nH]c(=O)c3c2cc1C`, the TGI in [1], in [2], in assay [3], in assay [4], in [5] and in [6] was greater than 100 µM in each case. Further, the TGI in [8], in [9] and in assay [10] was greater than 100 µM throughout.

As for `O=C(NC(Cc1ccc(I)cc1)C(=O)O)c1ccc(I)cc1` (stereo not given), the TGI is greater than 100 µM in assay [1]; greater than 100 µM in assay [2]; greater than 100 µM in assay [4]; greater than 100 µM in assay [5]; 97.4 µM in [7]; greater than 100 µM in [8]. Moreover, the TGI in [9] and in assay [10] was greater than 100 µM throughout.

With `O=C(NCCCN(CCCCN(CCCNC(=O)C(F)(F)F)Cc1ccccc1)Cc1ccccc1)C(F)(F)F`, the TGI in assay [1] was determined as 72.2 µM; in [2], 26.4 µM; in assay [3], 12.1 µM; in assay [4], 40.5 µM; in assay [5], 51.7 µM; in assay [6], 30.1 µM. The results for the TGI in [8], in [9] and in assay [10] were 26.3 µM, 25 µM and 26.8 µM, respectively.
